Data as given in patent US20260297542A1, “HERBICIDE RESISTANT PLANTS” (SYNGENTA CROP PROTECTION AG, priority 2023, published 2026).
Residue numbers refer to the chain shown, from its start.

Assays:
[1] = molecular target: T1, His-TEV-AtPP01 ΔcTP L479M (SEQ ID NO: 371) (Arabidopsis thaliana, UniProt P55826, L479M); assay: activity rate of PPO variant in in vitro assay; format: biochemical; conditions: role: substrate; 1 uM protoporphyrinogen IX; no inhibitor
T1 construct: with cTPs removed; made in house; host or cells: E. coli BL21 (DE3), His GraviTrap, partially purified
T1 sequence (P55826 with tags, fused parts or gaps L479M): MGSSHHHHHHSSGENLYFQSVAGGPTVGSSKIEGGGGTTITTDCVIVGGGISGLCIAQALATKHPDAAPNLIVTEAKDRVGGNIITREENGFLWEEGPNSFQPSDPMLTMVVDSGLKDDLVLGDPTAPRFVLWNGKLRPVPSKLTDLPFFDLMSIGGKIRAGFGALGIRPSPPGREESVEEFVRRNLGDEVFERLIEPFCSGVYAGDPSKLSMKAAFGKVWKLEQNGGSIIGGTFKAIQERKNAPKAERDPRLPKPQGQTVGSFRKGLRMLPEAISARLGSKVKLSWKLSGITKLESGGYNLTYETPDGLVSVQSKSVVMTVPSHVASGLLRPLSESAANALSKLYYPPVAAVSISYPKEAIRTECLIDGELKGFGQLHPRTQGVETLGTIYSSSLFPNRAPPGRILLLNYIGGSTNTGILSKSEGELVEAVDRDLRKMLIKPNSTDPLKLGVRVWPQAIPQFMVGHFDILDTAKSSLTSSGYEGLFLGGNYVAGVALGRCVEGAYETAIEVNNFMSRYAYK
Excerpt: (§1) A pET24 plasmid containing a DNA sequence encoding variants of AtPPO1 derived from Arabidopsis thaliana with cTPs removed and both a 6×His tag and TEV protease cleavage tag added at the N-terminus, codon-optimised for expression in E. coli, and under control of a T7 promoter, was synthesised by Twist Bioscience. The following variants were synthesised: WT AtPPO1 (SEQ ID NO: 370), AtPPO1 L479M (SEQ ID NO: 371), AtPPO1 L479N (SEQ ID NO: 372), AtPPO1 S305L Y426V (SEQ ID NO: 374) and AtPPO1 S305L Y426V L479M (SEQ ID NO: 373). This plasmid was expressed in E. coli BL21 (DE3) with 50 μg/mL kanamycin selection. 10 mL of overnight cultures grown at 37° C. were used to inoculate 1 L AIM (AIM-Terrific Broth Base including Trace elements, Formedium) in 2 L shake flasks. Cultures were grown at 37° C., 200 rpm for 3 hours and then overnight at 26° C. Cells were harvested centrifugation. 5-15 g of cell pellet was lysed in and resuspended in ratio of 1:1.5 in lysis buffer (20 mM Tris pH8, 500 mM sodium chloride, 10% glycerol, 1× complete Protease EDTA-free Inhibitor Tablet (Roche), 10 mM imidazole). The resuspension was sonicated at 75% using 10 cycles of 30 seconds, 40 seconds off. After sonication Triton X-100 was added to the lysates at a final concentration of 0.5%. The lysates were centrifuged at 20,000 rpm for 25 min at 4° C. Cleared lysates were loaded on His GraviTrap (Cytiva) columns, washed with 20 mL of lysis buffer and eluted in elution buffer (20 mM Tris pH8, 500 mM sodium chloride, 10% glycerol, 200 mM imidazole, 0.03% (v/v) Triton X-100). The eluate was desalted on a PD10 column and 2.5-3.2 mL was collected. Protein concentration was measured and calculated using the absorbance at 280 nm. Extracts were diluted 1 in 4 and 10 uL was analysed by SDS PAGE.
(§2) Partially purified Protoporphyrinogen Oxidase enzymes were assayed for activity using fluorescence adapted from the method of Shepherd & Dailey (Anal Biochem. 2005 344(1) 115-121). The assay was performed in black 384 well plates with a clear bottom and the total volume of the reaction mixture was 91 ul. The final assay mixture contained 100 mM K2HPO4 pH7.2, 1 mM Na2EDTA, 5 mM DTT, 20% glycerol (v/v), 0.05% Tween 20 (v/v), 1.1% DMSO (v/v), 1 uM protoporphyrinogen IX and 1.5 nM enzyme. Compounds were dissolved in DMSO at 1 mM and a 4-fold serial dilution carried out to give 8 rates. 1 ul was added to the assay mixture. This gave final compound concentrations of 11, 2.7, 0.69, 0.17, 0.04, 0.01, 0.002, 0.0007 uM. Enzyme and inhibitor were preincubated for 5 minutes prior to starting the reaction with the addition of the substrate. […] IC50s were calculated using GraphPad Prism 7.05 nonlinear regression (Table 6). Each compound was tested in duplicate.

[2] = molecular target: T2, His-TEV-AtPP01 ΔcTP (SEQ ID NO: 370) (Arabidopsis thaliana, UniProt P55826); assay: activity rate of PPO variant in in vitro assay; format: biochemical; conditions: role: substrate; 1 uM protoporphyrinogen IX; no inhibitor
T2 construct: with cTPs removed; made in house; host or cells: E. coli BL21 (DE3), His GraviTrap, partially purified
T2 sequence (P55826 with tags, fused parts or gaps): T1 sequence (P55826 with tags, fused parts or gaps L479M) with M464L
Excerpt: as §1, §2

C=Cc1c2[nH]c(c1C)Cc1[nH]c(c(CCC(=O)O)c1C)Cc1[nH]c(c(C)c1CCC(=O)O)Cc1[nH]c(c(C)c1C=C)C2 [protoporphyrinogen IX] was tested, and the Rate [1] was 9.9 rfu second^−1 pmole^−1 and the Rate [2] was 5.1 rfu second^−1 pmole^−1.
